Results reported in patent publication US20240132431A1, “METHOD FOR ALKYLATING ACIDIC FUNCTIONAL GROUP” (Chugai Seiyaku Kabushiki Kaisha, priority 2021, published 2024).

Target: T1, Bcl-2 protein (Recombinant Human Bcl-2 Protein) (Homo sapiens, UniProt P10415)
T1 construct: purchased Novus NBP2-34889
Assay: Binding evaluation of mixture library compounds to Bcl-2 using AS-MS (affinity selection mass spectrometry)
Conditions: for ASMS ratio (%) n = 1 / ASMS ratio (%) n = 2: ASMS Ratio(%)=(A−C)/B×100; for ASMS ratio (%) n = 1: replicate n = 1; for ASMS ratio (%) n = 2: replicate n = 2
Method in brief: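 Affinity selection MS: Bcl-2 20 μM + 1200-cpd mixture, […]/cpd, Tris pH 7.4 buffer w/ Tween-20, DTT; 1 h 23° C dark; P-2 spin SEC; MeCN/MeOH extraction; RP LC/MS. ASMS Ratio(%) = (A−C)/B×100.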

[1] = AS-MS on the mixture of 1200 library compounds
[2] = AS-MS, mixture of 1200 compounds, Bcl-2

T1 sequence (P10415 whole entry): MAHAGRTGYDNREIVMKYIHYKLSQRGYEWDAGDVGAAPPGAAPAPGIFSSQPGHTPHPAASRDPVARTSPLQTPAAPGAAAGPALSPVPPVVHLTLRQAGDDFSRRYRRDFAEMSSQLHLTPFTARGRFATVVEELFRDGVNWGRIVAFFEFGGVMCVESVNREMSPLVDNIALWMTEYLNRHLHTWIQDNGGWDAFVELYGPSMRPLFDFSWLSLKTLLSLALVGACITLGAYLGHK

## CCOc1cncc(-c2ccc(CN3CCN(c4ccc(C(=O)Nc5ccc(OC)cc5)cc4)CC3)c(OC)c2)c1 [B1O054-01, 4-[4-[[4-(5-Ethoxypyridin-3-yl)-2-methoxyphenyl]methyl]piperazin-1-yl]-N-(4-methoxyphenyl)benzamide]
[1]
  ASMS ratio (%) n = 1: 2.6%
  ASMS ratio (%) n = 2: 3.2%

## CCOc1cncc(-c2ccc(CN3CCN(c4ccc(C(=O)N(CC)CC)cc4)CC3)cc2C)c1 [B4J048-01, 4-[4-[[4-(5-Ethoxypyridin-3-yl)-3-methylphenyl]methyl]piperazin-1-yl]-N,N-diethylbenzamide]
[1]
  ASMS ratio (%) n = 1: 1.2%
  ASMS ratio (%) n = 2: −2.1%

## 4-[4-[2-[2-(3-Ethoxyphenyl)ethynyl]benzoyl]piperazin-1-yl]-N-propylbenzamide [B1M097-01]
[1]
  ASMS ratio (%) n = 1: 1.1%
  ASMS ratio (%) n = 2: 0.3%

## CCOc1cccc(-c2ccc(C(=O)N3CCN(c4ccc(C(=O)N(C)CC56CC7CC(CC(C7)C5)C6)nn4)CC3)c3ccccc23)c1 [B3A013-01, N-(1-Adamantylmethyl)-6-[4-[4-(3-ethoxyphenyl)naphthalene-1-carbonyl]piperazin-1-yl]-N-methylpyridazine-3-carboxamide]
[1]
  ASMS ratio (%) n = 1: 10.2%
  ASMS ratio (%) n = 2: −20.0%

## CCOc1cccc(-c2cc(CN3CCN(c4ccc(C(=O)Nc5ccc(OC)cc5)cc4)CC3)cc(C(F)(F)F)c2)c1 [B1O061-01, 4-[4-[[3-(3-Ethoxyphenyl)-5-(trifluoromethyl)phenyl]methyl]piperazin-1-yl]-N-(4-methoxyphenyl)benzamide]
[1]
  ASMS ratio (%) n = 1: 1.9%
  ASMS ratio (%) n = 2: −1.5%

## CCOc1cccc(-c2cnn(-c3cc(C(=O)N4CCN(c5ccc(C(=O)NS(C)(=O)=O)cc5)CC4)cc(C(F)(F)F)c3)c2)c1 [B2I043-01, 4-[4-[3-[4-(3-Ethoxyphenyl)pyrazol-1-yl]-5-(trifluoromethyl)benzoyl]piperazin-1-yl]-N-methylsulfonylbenzamide]
N = 1
  ASMS ratio (%): 0.0%
N = 2
  ASMS ratio (%): 0.0%

## CCOc1cncc(C#Cc2ccccc2CN2CCN(c3ccc(C(=O)N(CC)CC)nn3)CC2)c1 [B4J096-01]
AS-MS, mixture library, Bcl-2
  ASMS ratio (%) n = 2: 0.0%

## CCOc1cncc(-c2csc(C(=O)N3CCN(c4ccc(C(=O)NCC56CC7CC(CC(C7)C5)C6)cc4)CC3)c2)c1 [B1A024-01, N-(1-Adamantylmethyl)-4-[4-[4-(5-ethoxypyridin-3-yl)thiophene-2-carbonyl]piperazin-1-yl]benzamide]
[2]
  ASMS ratio (%) n = 1: 4.1%
  ASMS ratio (%) n = 2: 1.2%

## CCOc1cccc(-c2cnn(-c3cc(C(=O)N4CCN(c5ccc(C(=O)NS(=O)(=O)c6ccc(NCCSc7ccccc7)c([N+](=O)[O-])c6)cc5)CC4)cc(C(F)(F)F)c3)c2)c1 [B2Q043-01, 4-[4-[3-[4-(3-Ethoxyphenyl)pyrazol-1-yl]-5-(trifluoromethyl)benzoyl]piperazin-1-yl]-N-[3-nitro-4-(2-phenylsulfanylethylamino)phenyl]sulfonylbenzamide]
AS-MS, mixture library, Bcl-2
  ASMS ratio (%) n = 1: 12.4%
  ASMS ratio (%) n = 2: −13.4%

## CCOc1cncc(-c2ccc(CN3CCN(c4ccc(C(=O)NS(=O)(=O)CCC(F)(F)F)nn4)CC3)c(OC)c2)c1 [B2N080-01]
N = 1
  ASMS ratio (%): 0.0%
N = 2
  ASMS ratio (%): 0.0%

## CCOc1cccc(-c2ccccc2CCC(=O)N2CCN(c3ccc(C(=O)NS(C)(=O)=O)cc3)CC2)c1 [B2I033-01, 4-[4-[3-[2-(3-Ethoxyphenyl)phenyl]propanoyl]piperazin-1-yl]-N-methylsulfonylbenzamide]
AS-MS, mixture library, Bcl-2
  ASMS ratio (%) n = 1: 0.0%
  ASMS ratio (%) n = 2: 0.0%

## CCOc1cncc(C#Cc2cncc(C(=O)N3CCN(c4ccc(C(=O)NS(=O)(=O)c5ccc(NCCSc6ccccc6)c([N+](=O)[O-])c5)cc4)CC3)c2)c1 [B2Q032-01, 4-[4-[5-[2-(5-Ethoxypyridin-3-yl)ethynyl]pyridine-3-carbonyl]piperazin-1-yl]-N-[3-nitro-4-(2-phenylsulfanylethylamino)phenyl]sulfonylbenzamide]
AS-MS, mixture library, Bcl-2
  ASMS ratio (%) n = 1: −0.2%
  ASMS ratio (%) n = 2: −374.2%

## CCOc1cncc(-c2ccc(C(=O)N3CCN(c4ccc(C(=O)N(CC)CC)nn4)CC3)cc2C)c1 [B4J004-01, 6-[4-[4-(5-Ethoxypyridin-3-yl)-3-methylbenzoyl]piperazin-1-yl]-N,N-diethylpyridazine-3-carboxamide]
[1]
  ASMS ratio (%) n = 1: −2.2%
  ASMS ratio (%) n = 2: 0.4%

## CCOc1cccc(-c2ccc(CN3CCN(c4ccc(C(=O)NS(=O)(=O)C(C)(C)C)cc4)CC3)c(CC)c2)c1 [B2L049-01, N-tert-Butylsulfonyl-4-[4-[[4-(3-ethoxyphenyl)-2-ethylphenyl]methyl]piperazin-1-yl]benzamide]
N = 2
  ASMS ratio (%): 0.0%

## 6-[4-[3-[2-(3-Ethoxyphenyl)phenyl]propanoyl]piperazin-1-yl]-N-propylpyridazine-3-carboxamide [B1M067-01]
[2]
  ASMS ratio (%) n = 1: −1.6%
  ASMS ratio (%) n = 2: −87.4%

## CCOc1cccc(-c2ccccc2CN2CCN(c3ccc(C(=O)NS(=O)(=O)CC45CC6CC(CC(C6)C4)C5)nn3)CC2)c1 [B2A071-01, N-(1-Adamantylmethylsulfonyl)-6-[4-[[2-(3-ethoxyphenyl)phenyl]methyl]piperazin-1-yl]pyridazine-3-carboxamide]
AS-MS, mixture library, Bcl-2
  ASMS ratio (%) n = 1: 16.1%
  ASMS ratio (%) n = 2: 5.6%

## CCOc1cncc(-c2ccc(CN3CCN(c4ccc(C(=O)Nc5ccc(OC)cc5)cc4)CC3)cc2F)c1 [B1O052-01, 4-[4-[[4-(5-Ethoxypyridin-3-yl)-3-fluorophenyl]methyl]piperazin-1-yl]-N-(4-methoxyphenyl)benzamide]
[1]
  ASMS ratio (%) n = 1: 1.6%
  ASMS ratio (%) n = 2: 0.4%

## CCOc1cccc(-c2cc(CN3CCN(c4ccc(C(=O)NS(=O)(=O)c5ccc(NCCSc6ccccc6)c([N+](=O)[O-])c5)nn4)CC3)cc(OC(F)(F)F)c2)c1 [B2Q089-01, 6-[4-[[3-(3-Ethoxyphenyl)-5-(trifluoromethoxy)phenyl]methyl]piperazin-1-yl]-N-[3-nitro-4-(2-phenylsulfanylethylamino)phenyl]sulfonylpyridazine-3-carboxamide]
AS-MS, mixture library, Bcl-2
  ASMS ratio (%) n = 1: 25.0%
  ASMS ratio (%) n = 2: 15.0%

## CCOc1cccc(-c2cnn(-c3cc(C(=O)N4CCN(c5ccc(C(=O)NCC(F)(F)F)cc5)CC4)cc(C(F)(F)F)c3)c2)c1 [B1K043-01, 4-[4-[3-[4-(3-Ethoxyphenyl)pyrazol-1-yl]-5-(trifluoromethyl)benzoyl]piperazin-1-yl]-N-(2,2,2-trifluoroethyl)benzamide]
[2]
  ASMS ratio (%) n = 1: 3.8%
  ASMS ratio (%) n = 2: 1.9%

## CCOc1cncc(-c2ccc(CN3CCN(c4ccc(C(=O)N(C)CC56CC7CC(CC(C7)C5)C6)nn4)CC3)c(CC)c2)c1 [B3A076-01, N-(1-Adamantylmethyl)-6-[4-[[4-(5-ethoxypyridin-3-yl)-2-ethylphenyl]methyl]piperazin-1-yl]-N-methylpyridazine-3-carboxamide]
[1]
  ASMS ratio (%) n = 1: 6.5%
  ASMS ratio (%) n = 2: −0.9%

## CCOc1cncc(-c2ccc(C(C)N3CCN(c4ccc(C(=O)NS(=O)(=O)CCC(F)(F)F)cc4)CC3)cc2)c1 (centres unmarked) [B2N098-01, 4-[4-[1-[4-(5-Ethoxypyridin-3-yl)phenyl]ethyl]piperazin-1-yl]-N-(3,3,3-trifluoropropylsulfonyl)benzamide]
N = 1
  ASMS ratio (%): 0.0%
N = 2
  ASMS ratio (%): −0.7%

## 6-[4-[[3-(5-Ethoxypyridin-3-yl)-5-propan-2-yloxyphenyl]methyl]piperazin-1-yl]-N-propylpyridazine-3-carboxamide [B1M066-01]
[2]
  ASMS ratio (%) n = 1: 0.0%
  ASMS ratio (%) n = 2: 4.4%

## 6-[4-[5-[2-(5-Ethoxypyridin-3-yl)ethynyl]pyridine-3-carbonyl]piperazin-1-yl]-N-propylpyridazine-3-carboxamide [B1M056-01]
[2]
  ASMS ratio (%) n = 1: 0.5%
  ASMS ratio (%) n = 2: 0.0%

## CCOc1cncc(-c2ccc(CN3CCN(c4ccc(C(=O)NS(=O)(=O)CC56CC7CC(CC(C7)C5)C6)cc4)CC3)c(CC)c2)c1 [B2A050-01, N-(1-Adamantylmethylsulfonyl)-4-[4-[[4-(5-ethoxypyridin-3-yl)-2-ethylphenyl]methyl]piperazin-1-yl]benzamide]
AS-MS, mixture library, Bcl-2
  ASMS ratio (%) n = 1: −1.1%
  ASMS ratio (%) n = 2: 1.6%

## CCOc1cncc(-c2ccc(C(=O)N3CCN(c4ccc(C(=O)NS(=O)(=O)C(C)(C)C)nn4)CC3)c3ccccc23)c1 [B2L014-01, N-tert-Butylsulfonyl-6-[4-[4-(5-ethoxypyridin-3-yl)naphthalene-1-carbonyl]piperazin-1-yl]pyridazine-3-carboxamide]
N = 1
  ASMS ratio (%): 0.3%
N = 2
  ASMS ratio (%): 0.5%

## CCOc1cccc(-c2ccc(C(=O)N3CCN(c4ccc(C(=O)NCC56CC7CC(CC(C7)C5)C6)nn4)CC3)c3ccccc23)c1 [B1A013-01, N-(1-Adamantylmethyl)-6-[4-[4-(3-ethoxyphenyl)naphthalene-1-carbonyl]piperazin-1-yl]pyridazine-3-carboxamide]
[2]
  ASMS ratio (%) n = 1: −1.7%
  ASMS ratio (%) n = 2: 2.4%
